# Source: patent publication US20260191968A1, “PROTAC DEGRADERS OF MLLT1 AND/OR MLLT3” (DARK BLUE THERAPEUTICS LTD, priority 2024, published 2026)
# pIC50: −log10 of the molar value.
# What was measured:
# MLLT1 = target: T1, MLLT1 (Homo sapiens, UniProt Q03111); experiment: MLLT1 degradation assay in MV4-11 cells (JESS chemiluminescent detection), three concentrations, 24 h; type: cell-based; conditions: with respect to DMSO control
# T1 construct: host or cells: MV4-11
# T1 sequence (Q03111 1-559): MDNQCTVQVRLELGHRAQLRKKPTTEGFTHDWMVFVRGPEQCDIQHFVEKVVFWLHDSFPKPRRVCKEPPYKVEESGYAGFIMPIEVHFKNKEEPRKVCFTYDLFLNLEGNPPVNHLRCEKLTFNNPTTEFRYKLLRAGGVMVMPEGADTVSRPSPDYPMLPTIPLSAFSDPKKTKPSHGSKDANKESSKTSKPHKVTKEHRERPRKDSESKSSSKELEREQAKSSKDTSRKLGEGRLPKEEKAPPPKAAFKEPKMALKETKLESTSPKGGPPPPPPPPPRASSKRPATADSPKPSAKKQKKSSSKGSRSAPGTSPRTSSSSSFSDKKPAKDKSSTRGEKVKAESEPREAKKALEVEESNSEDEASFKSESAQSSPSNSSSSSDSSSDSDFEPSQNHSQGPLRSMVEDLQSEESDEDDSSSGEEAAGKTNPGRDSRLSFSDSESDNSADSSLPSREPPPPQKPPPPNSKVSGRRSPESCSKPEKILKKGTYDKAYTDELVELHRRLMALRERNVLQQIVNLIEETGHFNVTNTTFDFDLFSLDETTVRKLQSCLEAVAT
# Method in brief: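 Read-out is % MLLT1 degradation versus DMSO, from band peak areas on a JESS chemiluminescent system. Cells (MV4-11) were exposed for 24 h at 37° C to three compound levels, 10, 100 and 1000 nM, in 0.1% DMSO.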
# MV4-11 cells = experiment: MV4-11 cellular proliferative assay, Assay Format B (CTG 2.0, 168 h); type: cell-based; conditions: Homo sapiens, 168 h (7 days), CTG 2.0, read-out: IC50 (MV4-11 cellular proliferative assay, Assay format B)
# Method: MV4-11 cells at a confluency of ~50-80% was used for cell growth assay. 600 cells/well in a 384-well opaque cell culture plate (6007680; Perkin Elmer) were seeded in 40 μL of complete medium (IMDM+10% FBS+1X Penicillin-Streptomycin). Cells were incubated overnight at 37° C., 5% CO2. 10 mM DMSO stocks were prepared, cells were treated with 10 concentrations of test compounds starting from 1 uM or 100 nM, 3-fold dilution in 10 uL (5×concentration) of complete medium. Final DMSO concentration was 0.3%. Culture plates were centrifuged at 40×g, 30s. Cells were incubated with compounds for 168 h (7 days). After 7 days, 20 uL CTG 2.0 reagent (G9242; Promega) was added per well and luminescence reading was taken in Envision Xcite 2105 multimode plate reader. Data was analyzed in GraphPad Prism 10.0 and data was shown as % viability with respect to DMSO control and dose-response curves were generated using four parameter logistic regression. Assay quality was determined by z-factor calculation using positive and negative controls.
SMILES,MLLT1% Degradation @ 0.01 μM (MLLT1),MLLT1% Degradation @ 0.1 μM (MLLT1),MLLT1% Degradation @ 1 μM (MLLT1),pIC50 (MV4-11 cells)
"CN1CCC[C@@H]1c1cc2cnc(NC(=O)c3ccc(N4CCN(CC5CCN(c6cccc7c6CN(C6CCC(=O)NC6=O)C7=O)CC5)CC4)cc3)cc2[nH]1 (mixture of isomers) [Example 116, 4-(4-((1-(2-(2,6-dioxopiperidin-3-yl)-1-oxoisoindolin-4-yl)piperidin-4-yl)methyl)piperazin-1-yl)-N-(2-((R)-1-methylpyrrolidin-2-yl)-1H-pyrrolo[3,2-c]pyridin-6-yl)benzamide]",B (Category B: 50% ≤ B < 75% degradation),A (Category A: A ≥ 75% degradation),A (Category A: A ≥ 75% degradation),≥ 7.00
"CN1CCC[C@@H]1c1cc2cnc(NC(=O)c3ccc(OC4CCN(CC5CCN(c6cccc7c6CN(C6CCC(=O)NC6=O)C7=O)CC5)CC4)cc3)cc2[nH]1 (mixture of isomers) [Example 121, 4-((1-((1-(2-(2,6-dioxopiperidin-3-yl)-1-oxoisoindolin-4-yl)piperidin-4-yl)methyl)piperidin-4-yl)oxy)-N-(2-((R)-1-methylpyrrolidin-2-yl)-1H-pyrrolo[3,2-c]pyridin-6-yl)benzamide]",A (Category A: A ≥ 75% degradation),A (Category A: A ≥ 75% degradation),A (Category A: A ≥ 75% degradation),≥ 7.00
"C[C@@H]1CN(CC2CCN(c3cccc4c3CN(C3CCC(=O)NC3=O)C4=O)CC2)CCN1c1ccc(C(=O)Nc2cc3[nH]c([C@H]4CCCN4C)cc3cn2)cc1 (mixture of isomers) [Example 133, 4-((2R)-4-((1-(2-(2,6-dioxopiperidin-3-yl)-1-oxoisoindolin-4-yl)piperidin-4-yl)methyl)-2-methylpiperazin-1-yl)-N-(2-((R)-1-methylpyrrolidin-2-yl)-1H-pyrrolo[3,2-c]pyridin-6-yl)benzamide]",A (Category A: A ≥ 75% degradation),A (Category A: A ≥ 75% degradation),A (Category A: A ≥ 75% degradation),≥ 7.00
"CN1CCC[C@@H]1c1cc2cnc(NC(=O)c3ccc(CCCC#Cc4cccc5c4CN([C@H]4CCC(=O)NC4=O)C5=O)cc3)cc2[nH]1 (relative stereo) [Example 102, 4-(5-(2-((rel-S)-2,6-dioxopiperidin-3-yl)-1-oxoisoindolin-4-yl)pent-4-yn-1-yl)-N-(2-((R)-1-methylpyrrolidin-2-yl)-1H-pyrrolo[3,2-c]pyridin-6-yl)benzamide]",A (Category A: A ≥ 75% degradation),A (Category A: A ≥ 75% degradation),A (Category A: A ≥ 75% degradation),≥ 7.00
"CN1CCC[C@@H]1c1cc2cnc(NC(=O)c3ccc(CCCC#Cc4cccc5c4CN([C@@H]4CCC(=O)NC4=O)C5=O)cc3)cc2[nH]1 (relative stereo) [Example 103, 4-(5-(2-((rel-R)-2,6-dioxopiperidin-3-yl)-1-oxoisoindolin-4-yl)pent-4-yn-1-yl)-N-(2-((R)-1-methylpyrrolidin-2-yl)-1H-pyrrolo[3,2-c]pyridin-6-yl)benzamide]",A (Category A: A ≥ 75% degradation),A (Category A: A ≥ 75% degradation),A (Category A: A ≥ 75% degradation),≥ 7.00
"CN1CCC[C@@H]1c1cc2cnc(NC(=O)c3ccc(N4CCN(CC5CCN(c6cccc7c6CN([C@H]6CCC(=O)NC6=O)C7=O)CC5)CC4)cc3)cc2[nH]1 (relative stereo) [Example 117, 4-(4-((1-(2-((rel-S)-2,6-dioxopiperidin-3-yl)-1-oxoisoindolin-4-yl)piperidin-4-yl)methyl)piperazin-1-yl)-N-(2-((R)-1-methylpyrrolidin-2-yl)-1H-pyrrolo[3,2-c]pyridin-6-yl)benzamide]",B (Category B: 50% ≤ B < 75% degradation),A (Category A: A ≥ 75% degradation),B (Category B: 50% ≤ B < 75% degradation),≥ 7.00
"CN1CCC[C@@H]1c1cc2cnc(NC(=O)c3ccc(N4CCN(CC5CCN(c6cccc7c6CN([C@@H]6CCC(=O)NC6=O)C7=O)CC5)CC4)cc3)cc2[nH]1 (relative stereo) [Example 118, 4-(4-((1-(2-((rel-R)-2,6-dioxopiperidin-3-yl)-1-oxoisoindolin-4-yl)piperidin-4-yl)methyl)piperazin-1-yl)-N-(2-((R)-1-methylpyrrolidin-2-yl)-1H-pyrrolo[3,2-c]pyridin-6-yl)benzamide]",C (Category C: 25% ≤ C < 50% degradation),B (Category B: 50% ≤ B < 75% degradation),B (Category B: 50% ≤ B < 75% degradation),≥ 7.00

# Other lines, results leading:
MLLT1% Degradation @ 0.01 μM (MLLT1),MLLT1% Degradation @ 0.1 μM (MLLT1),MLLT1% Degradation @ 1 μM (MLLT1),pIC50 (MV4-11 cells),SMILES
A (Category A: A ≥ 75% degradation),A (Category A: A ≥ 75% degradation),A (Category A: A ≥ 75% degradation),≥ 7.00,"CN1CCC[C@@H]1c1[nH]c2cc(NC(=O)c3ccc(OCCC4CCN(c5cccc6c5CN(C5CCC(=O)NC5=O)C6=O)CC4)cc3)ncc2c1Cl (mixture of isomers) [Example 160, N-(3-chloro-2-((R)-1-methylpyrrolidin-2-yl)-1H-pyrrolo[3,2-c]pyridin-6-yl)-4-(2-(1-(2-(2,6-dioxopiperidin-3-yl)-1-oxoisoindolin-4-yl)piperidin-4-yl)ethoxy)benzamide]"
A (Category A: A ≥ 75% degradation),A (Category A: A ≥ 75% degradation),A (Category A: A ≥ 75% degradation),≥ 7.00,"CN1CCC[C@@H]1c1cc2cnc(NC(=O)c3ccc(OCCC4CCN(c5cccc6c5CN(C5CCC(=O)NC5=O)C6=O)CC4)cc3F)cc2[nH]1 (mixture of isomers) [Example 171, 4-(2-(1-(2-(2,6-dioxopiperidin-3-yl)-1-oxoisoindolin-4-yl)piperidin-4-yl)ethoxy)-2-fluoro-N-(2-((R)-1-methylpyrrolidin-2-yl)-1H-pyrrolo[3,2-c]pyridin-6-yl)benzamide]"
A (Category A: A ≥ 75% degradation),A (Category A: A ≥ 75% degradation),A (Category A: A ≥ 75% degradation),≥ 7.00,"CN1CCC[C@@H]1c1cc2cnc(NC(=O)c3ccc(CCCC4CCN(c5cccc6c5CN(C5CCC(=O)NC5=O)C6=O)CC4)cc3F)cc2[nH]1 (mixture of isomers) [Example 174, 4-(3-(1-(2-(2,6-dioxopiperidin-3-yl)-1-oxoisoindolin-4-yl)piperidin-4-yl)propyl)-2-fluoro-N-(2-((R)-1-methylpyrrolidin-2-yl)-1H-pyrrolo[3,2-c]pyridin-6-yl)benzamide]"
A (Category A: A ≥ 75% degradation),A (Category A: A ≥ 75% degradation),A (Category A: A ≥ 75% degradation),≥ 7.00,"C[C@@H]1CN(CC2CCN(c3cccc4c3CN(C3CCC(=O)NC3=O)C4=O)CC2)CCN1c1ccc(C(=O)Nc2cc3[nH]c([C@H]4CCCN4C)cc3cn2)cc1 (relative stereo) [Example 135, 4-((R)-4-((1-(2-((rel-S)-2,6-dioxopiperidin-3-yl)-1-oxoisoindolin-4-yl)piperidin-4-yl)methyl)-2-methylpiperazin-1-yl)-N-(2-((R)-1-methylpyrrolidin-2-yl)-1H-pyrrolo[3,2-c]pyridin-6-yl)benzamide]"
